Experiments:
insulinoma cell lines = conditions: cited from earlier work
PC12 cells [1] = test: Fluorescence determination of number of living cells and amount of neurite outgrowth (neurite outgrowth staining kit); type: cell-based
Protocol: (§1) A test was carried out at five concentrations (1.6, 8, 40, 200 and 1,000 μg/mL) of 1,5-AG. Stated more specifically, a 1,5-AG aqueous solution having a concentration of 100 mg/mL was diluted with water to prepare 100 times-concentrated solutions having concentrations of 0.16, 0.8, 4, 20 and 100 mg/mL. These 100 times-concentrated solutions were each added to a test medium in a ratio of 1/100 to achieve final concentrations of 1.6, 8, 40, 200 and 1,000 μg/mL and sterilized with a filter to be used in the test. As a negative control, water was added to a medium in a ratio of 1/100 and sterilized with a filter to be used in the test. As a positive control, a test medium containing a 100 ng/mL nerve growth factor (NGF) was used.
(§2) A growth medium was used to adjust the cells to a concentration of 2.0×10^3 cells/100 μL/well, and the cells were scattered in a collagen-coated 96-well plate to be cultured in a CO2 incubator (5% CO2, 37° C., moistening) for 24 hours. After culture, the medium was replaced by a sample-containing test medium (100 μL), and the cells were cultured in a CO2 incubator for 96 hours. After the end of culture, an image of the cells in each well was taken with a phase difference microscope and used for the measurement of nuetrite outgrowth rate, and nuclei and cytoplasms were fluorescent dyed by using a neurite outgrowth staining kit to measure the number of living cells and the amount of neurite outgrowth. These procedures were carried out five times each.
After the end of culture, the number of living cells and the amount of neurite outgrowth were determined by using a neurite outgrowth staining kit. Stated more specifically, after the medium was removed, 100 μL of a staining solution (prepared by diluting Cell Viability Indicator and Cell Membrane Stain attached to the kit with calcium magnesium-containing PBS 1,000 times) was added to each well to incubate the cells at 37° C. for 20 minutes. After incubation, the staining solution was removed, 100 μL of a background suppression solution (prepared by diluting the background suppression dye attached to the kit with calcium magnesium-containing PBS 100 times) was added to each well so as to measure fluorescence intensity with a micro plate reader (measurement of the number of living cells: excitation wavelength of 495 nm, fluorescence wavelength of 515 nm, measurement of the amount of neurite outgrowth: excitation wavelength of 555 nm, fluorescent wavelength of 565 nm).

PC12 cells [2] = test: Determination of neurite outgrowth rate in PC12 cells (image count); type: cell-based; conditions: for cells showing a neurite outgrowth rate of 1 time or more / cells showing a neurite outgrowth rate of 2 times or more: 96 hours
Protocol: PSG-1 belongs to an immunoglobulin super family which includes some having the function of promoting neurogenesis. Then, the influence of 1,5-AG upon neuritogenesis was investigated. This was evaluated in a test system using PC12 cells which are generally used for the evaluation of neuritogenesis.
PC12 cells (Lot No. 48, Lot No. 51) (RIKEN cell bank, material 1)
DMEM medium prepared by adding 0.1% of FBS, 0.1% of HS, 1 ng/mL NGF and 1% of penicillin-streptomycin
PC12 cells were initiated in a T-75 flask by using a growth medium to be cultured in a CO2 incubator (5% CO2, 37° C., moistening). Medium exchange was carried out every 2 days, the cells were collected when 80% confluence was reached, and cells having a passage number of 2 were used in this test. Stated more specifically, after the cells were washed with D-PBS (−), the cells were separated by using 0.05% trypsin, and a growth medium was added to neutralize trypsin. Then, the supernatant was removed by centrifugation (180 g, 5 minutes), a growth medium was added to stir the cells, the number of the cells was counted by using a corpuscle calculating board, and a growth medium was used to achieve a target concentration (2.0×10^3 cells/100 μL).
as §1, §2
Based on the image taken above, the total number of cells, the number of cells showing the same or higher neurite outgrowth than the cell length and the number of cells showing neurites having a length 2 times or more than the cell length were measured from the image of the cells. The percentage (%) of cells showing neurite outgrowth was calculated from the measurement values.

## OC[C@H]1OC[C@H](O)[C@@H](O)[C@@H]1O [1,5-AG, 1,5-anhydro-D-glucitol]
Insulinoma cell lines
  secretion of insulin: promotes the secretion of insulin
PC12 cells [1]; 8 μg/mL section
  amount of neurite outgrowth as compared with the non-added section: 113.4%
PC12 cells [1]; 40 μg/mL section
  amount of neurite outgrowth as compared with the non-added section: 113.3%
PC12 cells [1]; all test sections versus negative control, 96 hours
  number of living cells: about the same as that of a negative control
PC12 cells [2]; 40 μg/mL 1,5-AG
  cells showing a neurite outgrowth rate of 1 time or more: 15.8%
  cells showing a neurite outgrowth rate of 2 times or more: 10.3%
PC12 cells [2]; 200 μg/mL 1,5-AG
  cells showing a neurite outgrowth rate of 1 time or more: 18.7%
  cells showing a neurite outgrowth rate of 2 times or more: 10.4%
PC12 cells [2]; 40 and 200 μg/mL 1,5-AG
  cells showing a neurite outgrowth rate of 2 times or more, relative to non-added section: about 2 times

— patent publication US20170223976A1, “MODIFIED MILK POWDER CONTAINING 1,5-ANHYDRO-D-GLUCITOL” (NIHON STARCH CO., LTD., priority 2015, published 2017)
